Publication PMC6133161, “Thiazoles with cyclopropyl fragment as antifungal, anticonvulsant, and anti-Toxoplasma gondii agents: synthesis, toxicity evaluation, and molecular docking study” (Medicinal Chemistry Research, 2018)

Columns and labels:
[1] = system: motor coordination; experiment: Rotarod test; type: in vivo, mouse; details: mice, 100 mg/kg, 60 min pretreatment; 6, 18 and 24 rpm
Procedure: For in vivo tests that assessed anticonvulsant properties of the test compounds 3a–3j adult male Albino Swiss (CD-1) mice weighing between 18 and 22 g were used. The animals were housed in groups of ten mice per cage at room temperature of 22 ± 2 °C, under light/dark (12:12) cycle. The animals had free access to food and tap water before the experiments. The ambient temperature of the experimental room and humidity (50 ± 10%) were kept consistent throughout all the tests. For behavioral experiments the animals were selected randomly. Each experimental group consisted of 4–8 animals/dose. The experiments were performed between 9 AM and 2 PM. Immediately after the in vivo assay the animals were euthanized by cervical dislocation. All procedures were approved by the Local Ethics Committee of the Jagiellonian University in Krakow (34/2018, 1.02.2018)) and the treatment of animals was in full accordance with ethical standards laid down in respective Polish and EU regulations (Directive No. 86/609/EEC). For in vivo tests the compounds 3a–3j were prepared in 1% Tween 80 solution (POCH, Poland) and they were administered by the intraperitoneal route. Control mice received 1% Tween 80. Pentylenetetrazole (PTZ), pilocarpine hydrochloride and scopolamine butylbromide were provided by Sigma Aldrich (Poland). For the tests they were prepared in 0.9% saline (Polfa Kutno, Poland). PTZ and pilocarpine were administered 60 min after the test compound or vehicle. To assess anticonvulsant properties of the test compounds anticonvulsant screening was conducted. Four assays were used: PTZ, maximal electroshock seizure (MES), 6-Hz and pilocarpine tests. In these assays the dose of 100 mg/kg was chosen as a starting dose. If it turned out to be effective, a lower dose (30 mg/kg) was also tested. The test was performed according to the method recently described (Sałat et al. [2005]). The mice were trained daily for 3 consecutive days on the rotarod apparatus (Rotarod apparatus, May Commat RR0711, Turkey; rod diameter: 2 cm) rotating at a constant speed of 18 rotations per minute (rpm). During each training session, the animals were placed on a rotating rod for 3 min with an unlimited number of trials. The proper experimentation was conducted 24 h after the final training trial. […] Motor impairments, defined as the inability to remain on the rotating rod for 1 min were measured and mean time spent on the rod was counted in each experimental group.

[2] = system: PTZ-induced clonic seizures; experiment: PTZ seizure test; type: in vivo, mouse; details: mice, ip, 60 min before PTZ 100 mg/kg sc; for latency time to first clonus / number of seizure episodes: vs vehicle
Procedure: For in vivo tests that assessed anticonvulsant properties of the test compounds 3a–3j adult male Albino Swiss (CD-1) mice weighing between 18 and 22 g were used. The animals were housed in groups of ten mice per cage at room temperature of 22 ± 2 °C, under light/dark (12:12) cycle. The animals had free access to food and tap water before the experiments. The ambient temperature of the experimental room and humidity (50 ± 10%) were kept consistent throughout all the tests. For behavioral experiments the animals were selected randomly. Each experimental group consisted of 4–8 animals/dose. The experiments were performed between 9 AM and 2 PM. Immediately after the in vivo assay the animals were euthanized by cervical dislocation. All procedures were approved by the Local Ethics Committee of the Jagiellonian University in Krakow (34/2018, 1.02.2018)) and the treatment of animals was in full accordance with ethical standards laid down in respective Polish and EU regulations (Directive No. 86/609/EEC). For in vivo tests the compounds 3a–3j were prepared in 1% Tween 80 solution (POCH, Poland) and they were administered by the intraperitoneal route. Control mice received 1% Tween 80. Pentylenetetrazole (PTZ), pilocarpine hydrochloride and scopolamine butylbromide were provided by Sigma Aldrich (Poland). For the tests they were prepared in 0.9% saline (Polfa Kutno, Poland). PTZ and pilocarpine were administered 60 min after the test compound or vehicle. To assess anticonvulsant properties of the test compounds anticonvulsant screening was conducted. Four assays were used: PTZ, maximal electroshock seizure (MES), 6-Hz and pilocarpine tests. In these assays the dose of 100 mg/kg was chosen as a starting dose. If it turned out to be effective, a lower dose (30 mg/kg) was also tested. The test was performed according to a method previously described (Sałat et al. [2005]). Clonic convulsions were induced by the subcutaneous (sc) administration of PTZ at a dose of 100 mg/kg. After PTZ injection, each mouse was immediately placed in a transparent Plexiglas cage (30 × 20 × 15 cm) and was observed during the next 30 min for the occurrence of clonic seizures. Clonic seizures were defined as clonus of the whole body lasting more than 3 s, with an accompanying loss of righting reflex. Latency time to first clonus and the number of seizure episodes were noted and compared between vehicle-treated and drug-treated groups.

| SMILES | motor coordination (time spent on rotarod) [1] | anticonvulsant activity in PTZ model [2] | latency time to first clonus [2] | number of seizure episodes [2] |
| --- | --- | --- | --- | --- |
| Clc1ccc(-c2csc(N/N=C/C3CC3)n2)cc1 [Compound 3c, (E)-4-(4-Chlorophenyl)-2-(2-(cyclopropylmethylene)hydrazinyl)thiazole] | None of these compounds impaired motor skills | not effective |  |  |
| FC(F)(F)c1ccc(-c2csc(N/N=C/C3CC3)n2)cc1 [Compound 3e, (E)-2-(2-(Cyclopropylmethylene)hydrazinyl)-4-(4-(trifluoromethyl)phenyl)thiazole] | None of these compounds impaired motor skills | not effective |  |  |
| COc1ccc(-c2csc(N/N=C/C3CC3)n2)cc1 [Compound 3f, (E)-2-(2-(Cyclopropylmethylene)hydrazinyl)-4-(4-methoxyphenyl)thiazole] | None of these compounds impaired motor skills |  | significantly prolonged | reduced |
| [N-]=[N+]=Nc1ccc(-c2csc(N/N=C/C3CC3)n2)cc1 [Compound 3i, (E)-4-(4-Azidophenyl)-2-(2-(cyclopropylmethylene)hydrazinyl)thiazole] | None of these compounds impaired motor skills |  | significantly prolonged | reduced |
